Test results: patent US20230391772A1, “METHODS AND COMPOSITIONS FOR TARGETED PROTEIN DEGRADATION” (Ranok Therapeutics (Hangzhou) Co. Ltd., priority 2020, published 2023)
pEC50, pIC50: −log10 of the molar value.

What was measured:
[1] = molecular target: T1, HSP90a protein (Homo sapiens, UniProt P07900); test: HSP90α-binding fluorescent polarization (FP) assay, BODIPY-labeled RNK04010 probe; conditions: FP competition with RNK04010 (BODIPY-labeled), 5 nM, 300 min at 25° C.
T1 construct: purchased BPS Bioscience 50298
In short: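 Binding was scored by fluorescence polarization after adding N-terminal HSP90a to wells holding probe and compound, with compound tested from 20 μM to 5.2 nM. Probe-dependent times at 25° C were 120 min for FITC-geldanamycin and 300 min for RNK04010-BODIPY, both at 5 nM final.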

[2] = test system: NCI-H358 human non-small cell lung cancer; test: NCI-H358 CCK-8 proliferation assay; format: cell-based; conditions: NCI-H358 cells, 72 hr
In short: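 Percent inhibition derived from CCK-8 optical signal, normalised between DMSO-only cells (0%) and cell-free medium containing DMSO as background. Cells: MIA PaCa-2 carrying 2 KRAS(G12C) copies; NCI-H358, NCI-H23 carrying 1 copy apiece. Concentrations spanned 1.02 nM–20 μM in threefold increments.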

| pIC50 [1] | pEC50 [2] | Structure (SMILES) |
| --- | --- | --- |
| > 7.00 | < 6.00 | CC(=O)N1CCN(c2nc(NCCC(=O)NCCc3ccc(-n4c(O)nnc4-c4cc(C(C)C)c(O)cc4O)cc3)nc3c2CCN(c2cc(O)cc4ccccc24)C3)CC1 [Compound 22, 3-((4-(4-acetylpiperazin-1-yl)-7-(3-hydroxynaphthalen-1-yl)-5,6,7,8-tetrahydropyrido[3,4-d]pyrimidin-2-yl)amino)-N-(4-(3-(2,4-dihydroxy-5-isopropylphenyl)-5-hydroxy-4H-1,2,4-triazol-4-yl)phenethyl)propanamide, trifluoroacetic acid] |
| < 6.00 | < 6.00 | C=CC(=O)N1CCN(c2nc(NCCC(=O)NCc3ccc(-n4c(O)nnc4-c4ccc(O)cc4O)cc3)nc3c2CCN(c2cccc4ccccc24)C3)C[C@H]1CC#N [Compound 81] |
| < 6.00 | < 6.00 | CCC(=O)N1CCN(c2nc(NCCC(=O)NCc3ccc(-n4c(O)nnc4-c4ccc(O)cc4O)cc3)nc3c2CCN(c2cc(O)cc4ccccc24)C3)CC1 [Compound 31, N-(4-(3-(2,4-dihydroxyphenyl)-5-hydroxy-4H-1,2,4-triazol-4-yl)benzyl)-3-((7-(3-hydroxynaphthalen-1-yl)-4-(4-propionylpiperazin-1-yl)-5,6,7,8-tetrahydropyrido[3,4-d]pyrimidin-2-yl)amino)propanamide, trifluoroacetic acid] |
| 6.00 to 7.00 | 6.00 to 7.00 | C=CC(=O)N1CCN(c2nc(NCCC(=O)N3CCC(Cc4ccc(-n5c(O)nnc5-c5cc(C(C)C)c(O)cc5O)cc4)CC3)nc3c2CCN(c2cccc4ccccc24)C3)C[C@H]1CC#N [Compound 84, (R)-2-(1-acryloyl-4-(2-((3-(4-(4-(3-(2,4-dihydroxy-5-isopropylphenyl)-5-hydroxy-4H-1,2,4-triazol-4-yl)benzyl)piperidin-1-yl)-3-oxopropyl)amino)-7-(naphthalen-1-yl)-5,6,7,8-tetrahydropyrido[3,4-d]pyrimidin-4-yl)piperazin-2-yl)acetonitrile, trifluoroacetic acid] |
| 6.00 to 7.00 | < 6.00 | CCC(=O)N1CCN(c2nc(NCCC(=O)NCc3ccc(-n4c(O)nnc4-c4cc(C(C)C)c(O)cc4O)cc3C(F)(F)F)nc3c2CCN(c2cc(O)cc4ccccc24)C3)CC1 [Compound 46, N-(4-(3-(2,4-dihydroxy-5-isopropylphenyl)-5-hydroxy-4H-1,2,4-triazol-4-yl)-2-(trifluoromethyl)benzyl)-3-((7-(3-hydroxynaphthalen-1-yl)-4-(4-propionylpiperazin-1-yl)-5,6,7,8-tetrahydropyrido[3,4-d]pyrimidin-2-yl)amino)propenamide] |
| > 7.00 | < 6.00 | C=CC(=O)N1CCN(c2nc(NCCC(=O)NCC3CCN(C(=O)C4CCN(Cc5ccc(-n6c(O)nnc6-c6cc(C(C)C)c(O)cc6O)cc5)CC4)CC3)nc3c2CCN(c2cccc4ccccc24)C3)C[C@H]1CC#N [Compound 101, (R)-3-((4-(4-acryloyl-3-(cyanomethyl)piperazin-1-yl)-7-(naphthalen-1-yl)-5,6,7,8-tetrahydropyrido[3,4-d]pyrimidin-2-yl)amino)-N-((1-(1-(4-(3-(2,4-dihydroxy-5-isopropylphenyl)-5-hydroxy-4H-1,2,4-triazol-4-yl)benzyl)piperidine-4-carbonyl)piperidin-4-yl)methyl)propanamide, trifluoroacetic acid] |
| 6.00 to 7.00 | < 6.00 | C=CC(=O)N1CCN(c2nc(NCCC(=O)N3CCN(Cc4ccc5c(c4)CN(C(=O)c4cc(C(C)C)c(O)cc4O)C5)CC3)nc3c2CCN(c2cc(O)cc4ccccc24)C3)CC1 [Compound 58, 1-(4-(2-((3-(4-((2-(2,4-dihydroxy-5-isopropylbenzoyl)isoindolin-5-yl)methyl)piperazin-1-yl)-3-oxopropyl)amino)-7-(3-hydroxynaphthalen-1-yl)-5,6,7,8-tetrahydropyrido[3,4-d]pyrimidin-4-yl)piperazin-1-yl)prop-2-en-1-one] |
| > 7.00 | 6.00 to 7.00 | C=C(F)C(=O)N1CCN(c2nc(N3CCC(CN4CCN(Cc5ccc(-n6c(O)nnc6-c6cc(C(C)C)c(O)cc6O)cc5)CC4)CC3)nc3c2CCN(c2cccc4cccc(Cl)c24)C3)C[C@@H]1CC#N [Compound 129, (S)-2-(4-(7-(8-chloronaphthalen-1-yl)-2-(4-((4-(4-(3-(2,4-dihydroxy-5-isopropylphenyl)-5-hydroxy-4H-1,2,4-triazol-4-yl)benzyl)piperazin-1-yl)methyl)piperidin-1-yl)-5,6,7,8-tetrahydropyrido[3,4-d]pyrimidin-4-yl)-1-(2-fluoroacryloyl)piperazin-2-yl)acetonitrile] |
| < 6.00 | < 6.00 | CCC(=O)N1CCN(c2nc(NCCC(=O)NCc3ccc(-n4c(O)nnc4-c4cc(CC)c(O)cc4O)cc3C(F)(F)F)nc3c2CCN(c2cc(O)cc4ccccc24)C3)CC1 [Compound 45, N-(4-(3-(5-ethyl-2,4-dihydroxyphenyl)-5-hydroxy-4H-1,2,4-triazol-4-yl)-2-(trifluoromethyl)benzyl)-3-((7-(3-hydroxynaphthalen-1-yl)-4-(4-propionylpiperazin-1-yl)-5,6,7,8-tetrahydropyrido[3,4-d]pyrimidin-2-yl)amino)propanamide, trifluoroacetic acid] |
| 6.00 to 7.00 | < 6.00 | CC(=O)N1CCN(c2nc(NCCC(=O)N3CCC(CN4CCC(Cc5ccc(-n6c(O)nnc6-c6cc(C(C)C)c(O)cc6O)cc5)CC4)CC3)nc3c2CCN(c2cc(O)cc4ccccc24)C3)CC1 [Compound 29, 3-((4-(4-acetylpiperazin-1-yl)-7-(3-hydroxynaphthalen-1-yl)-5,6,7,8-tetrahydropyrido[3,4-d]pyrimidin-2-yl)amino)-1-(4-((4-(4-(3-(2,4-dihydroxy-5-isopropylphenyl)-5-hydroxy-4H-1,2,4-triazol-4-yl)benzyl)piperidin-1-yl)methyl)piperidin-1-yl)propan-1-one, trifluoroacetic acid] |
| 6.00 to 7.00 | < 6.00 | C=CC(=O)N1CCN(c2nc(NCCC(=O)NCc3ccc(-n4c(O)nnc4-c4cc(CC)c(O)cc4O)cc3)nc3c2CCN(c2cc(O)cc4ccccc24)C3)CC1 [Compound 40, 3-((4-(4-acryloylpiperazin-1-yl)-7-(3-hydroxynaphthalen-1-yl)-5,6,7,8-tetrahydropyrido[3,4-d]pyrimidin-2-yl)amino)-N-(4-(3-(5-ethyl-2,4-dihydroxyphenyl)-5-hydroxy-4H-1,2,4-triazol-4-yl)benzyl)propanamide, trifluoroacetic acid] |
| > 7.00 | < 6.00 | CCC(=O)N1CCN(c2nc(=O)n(-c3ccc(C(=O)NCCOCCOc4ccc(-n5c(O)nnc5-c5cc(C(C)C)c(O)cc5O)cc4)nc3)c3nc(-c4c(O)cccc4F)c(F)cc23)[C@@H](C)C1 [Compound 130, N-(2-(2-(4-(3-(2,4-dihydroxy-5-isopropylphenyl)-5-hydroxy-4H-1,2,4-triazol-4-yl)phenoxy)ethoxy)ethyl)-5-(6-fluoro-7-(2-fluoro-6-hydroxyphenyl)-4-((S)-2-methyl-4-propionylpiperazin-1-yl)-2-oxopyrido[2,3-d]pyrimidin-1(2H)-yl)picolinamide] |
| < 6.00 | < 6.00 | C=CC(=O)N1CCN(c2nc(NCCC(=O)N3CCN(Cc4ccc5c(c4F)CN(C(=O)c4ccc(O)cc4O)C5)CC3)nc3c2CCN(c2cc(O)cc4ccccc24)C3)CC1 [Compound 105, 1-(4-(2-((3-(4-((2-(2,4-dihydroxybenzoyl)-4-fluoroisoindolin-5-yl)methyl)piperazin-1-yl)-3-oxopropyl)amino)-7-(3-hydroxynaphthalen-1-yl)-5,6,7,8-tetrahydropyrido[3,4-d]pyrimidin-4-yl)piperazin-1-yl)prop-2-en-1-one, trifluoroacetic acid] |
| < 6.00 | < 6.00 | C=C(F)C(=O)N1CCN(c2nc(OC[C@@H]3CCN(C(=O)c4ccc(Nc5cc(-n6nc(C(F)(F)F)c7c6CC(C)(C)CC7=O)ccc5C(N)=O)cc4)C3)nc3c2CCN(c2cccc4cccc(Cl)c24)C3)C[C@@H]1CC#N [Compound 163, 2-((4-((R)-3-(((7-(8-chloronaphthalen-1-yl)-4-((S)-3-(cyanomethyl)-4-(2-fluoroacryloyl)piperazin-1-yl)-5,6,7,8-tetrahydropyrido[3,4-d]pyrimidin-2-yl)oxy)methyl)pyrrolidine-1-carbonyl)phenyl)amino)-4-(6,6-dimethyl-4-oxo-3-(trifluoromethyl)-4,5,6,7-tetrahydro-1H-indazol-1-yl)benzamide] |
| < 6.00 | < 6.00 | C=CC(=O)N1CCN(c2nc(NCCC(=O)N3CCN(Cc4ccc5c(c4)CN(C(=O)c4ccc(O)cc4O)C5)CC3)nc3c2CCN(c2cc(O)cc4ccccc24)C3)CC1 [Compound 86, 1-(4-(2-((3-(4-((2-(2,4-dihydroxybenzoyl)isoindolin-5-yl)methyl)piperazin-1-yl)-3-oxopropyl)amino)-7-(3-hydroxynaphthalen-1-yl)-5,6,7,8-tetrahydropyrido[3,4-d]pyrimidin-4-yl)piperazin-1-yl)prop-2-en-1-one, trifluoroacetic acid] |
| 6.00 to 7.00 | < 6.00 | C=CC(=O)N1CCN(c2nc(NCCC(=O)NCc3ccc(-n4c(O)nnc4-c4cc(C(C)C)c(O)cc4O)cc3F)nc3c2CCN(c2cccc4ccccc24)C3)C[C@H]1CC#N [Compound 96, (R)-3-((4-(4-acryloyl-3-(cyanomethyl)piperazin-1-yl)-7-(naphthalen-1-yl)-5,6,7,8-tetrahydropyrido[3,4-d]pyrimidin-2-yl)amino)-N-(4-(3-(2,4-dihydroxy-5-isopropylphenyl)-5-hydroxy-4H-1,2,4-triazol-4-yl)-2-fluorobenzyl)propanamide, trifluoroacetic acid] |
